Results on eleven molecules are retold here after patent US9365588B2, “Benzoxazines as modulators of ion channels” (Vertex Pharmaceuticals Incorporated, priority 2011, dated 2016).

For orientation: pIC50 means the negative decadic logarithm of the IC50, by convention in mol/L.

pIC50: −log10 of the molar value. Where only a bound is given, the exact number is not on record here.

Sequence of human NaV 1.7 (Q15858 whole entry): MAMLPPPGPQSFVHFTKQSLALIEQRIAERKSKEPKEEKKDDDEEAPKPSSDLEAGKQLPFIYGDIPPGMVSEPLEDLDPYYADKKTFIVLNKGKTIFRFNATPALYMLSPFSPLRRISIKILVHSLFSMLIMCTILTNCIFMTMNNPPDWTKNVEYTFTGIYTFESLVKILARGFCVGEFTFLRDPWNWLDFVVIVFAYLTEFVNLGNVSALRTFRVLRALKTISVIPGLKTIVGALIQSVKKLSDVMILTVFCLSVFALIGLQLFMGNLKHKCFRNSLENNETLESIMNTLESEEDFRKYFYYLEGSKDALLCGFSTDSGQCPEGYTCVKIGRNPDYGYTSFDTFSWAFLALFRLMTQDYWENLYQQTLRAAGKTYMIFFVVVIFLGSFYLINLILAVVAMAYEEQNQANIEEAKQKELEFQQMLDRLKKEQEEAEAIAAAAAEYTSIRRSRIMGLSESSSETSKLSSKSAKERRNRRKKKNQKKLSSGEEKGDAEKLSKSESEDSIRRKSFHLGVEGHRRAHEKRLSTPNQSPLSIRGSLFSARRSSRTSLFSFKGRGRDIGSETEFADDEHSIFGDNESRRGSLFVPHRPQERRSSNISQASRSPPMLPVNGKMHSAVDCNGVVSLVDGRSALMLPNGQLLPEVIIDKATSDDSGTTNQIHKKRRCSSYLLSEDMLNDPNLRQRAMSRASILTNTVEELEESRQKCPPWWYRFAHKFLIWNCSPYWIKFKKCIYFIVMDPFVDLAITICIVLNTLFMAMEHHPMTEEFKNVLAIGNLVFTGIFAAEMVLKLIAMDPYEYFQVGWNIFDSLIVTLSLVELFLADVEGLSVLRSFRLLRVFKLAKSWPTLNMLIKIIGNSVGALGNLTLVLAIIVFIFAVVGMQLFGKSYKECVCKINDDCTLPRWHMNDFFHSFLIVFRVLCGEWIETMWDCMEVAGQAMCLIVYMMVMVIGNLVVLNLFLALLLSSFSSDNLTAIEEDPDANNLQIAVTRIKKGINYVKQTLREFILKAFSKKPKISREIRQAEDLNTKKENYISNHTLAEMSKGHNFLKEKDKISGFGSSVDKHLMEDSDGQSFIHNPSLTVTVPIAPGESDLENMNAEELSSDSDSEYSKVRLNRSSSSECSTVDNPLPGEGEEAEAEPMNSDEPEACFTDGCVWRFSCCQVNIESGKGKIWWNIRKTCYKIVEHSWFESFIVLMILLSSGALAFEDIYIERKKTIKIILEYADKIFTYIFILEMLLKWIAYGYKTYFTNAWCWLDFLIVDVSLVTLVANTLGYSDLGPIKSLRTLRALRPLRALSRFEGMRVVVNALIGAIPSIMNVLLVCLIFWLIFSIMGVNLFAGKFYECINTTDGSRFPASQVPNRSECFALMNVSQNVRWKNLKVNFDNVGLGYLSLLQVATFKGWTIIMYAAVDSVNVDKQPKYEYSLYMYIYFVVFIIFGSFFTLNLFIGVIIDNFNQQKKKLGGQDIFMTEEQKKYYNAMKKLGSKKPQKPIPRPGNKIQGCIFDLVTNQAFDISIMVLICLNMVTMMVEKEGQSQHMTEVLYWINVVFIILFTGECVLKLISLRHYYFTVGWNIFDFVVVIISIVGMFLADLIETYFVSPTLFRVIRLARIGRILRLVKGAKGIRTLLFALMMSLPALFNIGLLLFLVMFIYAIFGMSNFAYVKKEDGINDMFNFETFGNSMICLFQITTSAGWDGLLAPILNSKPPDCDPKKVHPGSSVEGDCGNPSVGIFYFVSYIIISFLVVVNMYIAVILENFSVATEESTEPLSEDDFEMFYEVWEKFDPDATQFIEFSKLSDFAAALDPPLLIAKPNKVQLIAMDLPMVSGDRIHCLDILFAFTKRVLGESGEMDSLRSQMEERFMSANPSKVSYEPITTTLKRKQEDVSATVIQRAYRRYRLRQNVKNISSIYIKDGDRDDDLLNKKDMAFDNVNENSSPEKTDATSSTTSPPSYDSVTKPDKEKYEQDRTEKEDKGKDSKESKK

The assay concerns the target human NaV 1.7 (Homo sapiens, UniProt Q15858). The assay can be described thus: E-VIPR optical membrane potential assay with electrical stimulation. Type of assay: cell-based. The settings on record: sodium channel inhibition; read-out: Binned Activity Data (IC50). The essentials:
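Membrane-potential read-out: background-subtracted 460 nm/580 nm ratio during a 9 s current-controlled stimulus, 400 Hz scan. Before stimulation, NaV1.7-HEK cells carried coumarin/oxonol dye and compound (final DMSO 0.625%) for 20–35 min at room temperature; tetracaine 125 μM served as positive control.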
Regarding `O=C(c1ccc(S(=O)(=O)CC2CCOC2)cn1)N1CCC2(CC1)Oc1ccccc1-n1c(C(F)(F)F)ccc12` (centres unmarked) [Compound 877], the negative-log IC50 (pIC50) was at least 5.70.

On to `O=C(c1ccc(O)c(Cl)c1)N1CCC2(CC1)Oc1ccccc1-n1c(C(F)(F)F)ccc12` [Compound 878], for which the pIC50 is at least 5.70. Take `CC(C)(C)Sc1ccc(C(=O)N2CCC3(CC2)Oc2ccccc2-n2c(C(F)(F)F)ccc23)cc1` [Compound 879]: the pIC50 is at least 5.70. Regarding `CC(C)(C)[S@@+]([O-])c1ccc(C(=O)N2CCC3(CC2)Oc2ccccc2-n2c(C(F)(F)F)ccc23)cc1` [Compound 880], the pIC50 was 5.30 to 5.70. Consider `CC(C)S(=O)(=O)c1ccc(C(=O)N2CCC3(CC2)Oc2ccccc2-n2c(C(F)(F)F)ccc23)nc1` [Compound 881], for which the pIC50 is at least 5.70. In the case of `CC(C)(C)[S+]([O-])c1ccc(C(=O)N2CCC3(CC2)Oc2ccccc2-n2c(C(F)(F)F)ccc23)cc1` (centres unmarked) [Compound 882] it was 5.30 to 5.70; in that of `CC(C)(C)[S@+]([O-])c1ccc(C(=O)N2CCC3(CC2)Oc2ccccc2-n2c(C(F)(F)F)ccc23)cc1` [Compound 883], 5.30 to 5.70.

`COc1ccc(C(=O)N2CCC3(CC2)Oc2ccccc2-n2c(C(F)(F)F)ccc23)cc1C` [Compound 884]: the pIC50 is at least 5.70. In the case of `O=C(c1ccccc1OC(F)F)N1CCC2(CC1)Oc1ccccc1-c1c2cnn1C(F)F` [Compound 889] it was at least 5.70; in that of `COc1ccc(C(=O)N2CCC3(CC2)Oc2ccccc2-c2c3cnn2C(F)(F)F)cc1OC` [Compound 890], at least 5.70. Next, `O=C(c1ccc(OS(=O)(=O)C(F)(F)F)cc1)N1CCC2(CC1)Oc1ccccc1-n1c(C(F)(F)F)ccc12` [Compound 891]: at least 5.70.
